According to US20110184011A1, “Compounds” (SELCIA LIMITED, priority 2008, published 2011):

Key:
[1] = test system: BALB/c mice, oxazolone-induced ear edema; test: Mouse allergic contact dermatitis model induced by oxazolone, topical application, ear swelling; assay type: in vivo; conditions: for effect on inflammation in mouse allergic contact dermatitis model: topical application, 0.3-3 mg/ear x2, result in words
Protocol: BALB/c derived male mice, weighing 23±2 g were housed in individually ventilated cages racks (IVC Racks, 36 Mini Isolator systems) throughout the experiment. Five mice per group were kept in a cage (in cm, 26.7 length×20.7 width×14.0 height) and maintained under controlled temperature (21-23° C.) and humidity (50%-70%) with 12-hour light/dark cycles. The animals were given free access to sterilized lab chow and reverse osmosis (RO) water ad libitum. All aspects of this work, i.e. housing, experimentation and disposal of animals, are performed in general accordance with the Guide for the Care and Use of Laboratory Animals (National Academy Press, Washington, D.C., 1996).
Compound (2) was prepared as 150, 50 and 15 mg/ml in vehicle, acetone:ethanol/1:1. The preshaven abdomens of five groups of 5 BALB/c test mice were sensitized by application of 100 μL of 1.5% oxazolone solution dissolved in acetone. Seven days after the initial sensitization, test substance (0.3, 1 and 3 mg in 20 μl/ear) and vehicle (acetone:ethanol/1:1, 20 μL/ear) were each administered topically to the anterior and posterior surfaces of the right ear 30 minutes before and 15 minutes after challenge by the second application of oxazolone (1% in acetone, 20 μL/ear). As a positive control, dexamethasone (0.1 mg/ear) was administered topically using the same treatment regime as the test compound. Twenty-four hours after the second application of oxazolone, the ear thickness of each mouse was measured with a Dyer model micrometer gauge. Ear edema was calculated by subtracting the thickness of the left ear (normal control) from the right ear (treated ear). Percent inhibition was calculated according to the formula: [(Ic−It)/Ic]×100%, where Ic and It refer to increase of ear thickness (mm) in control and treated mice, respectively. A 30 percent or more (30%) inhibition in ear swelling relative to the vehicle control is considered significant and indicates possible anti-inflammatory activity.

[2] = test system: IL-1β stimulated IL-8 secretion in human umbilical vein endothelial cells (HUVECs); test: IL-1β stimulated IL-8 secretion assay in HUVEC cells (ELISA); assay type: cell-based; conditions: 0.5 ng/ml IL-1β; for IC50: 24 h, IL-8 ELISA; for inhibition at 1 µM: 1 μM compound, read-out: % Inhib at 1 μM; for inhibition at 1 µM / inhibition at 10 µM: IL-8 secretion; for inhibition at 10 µM: 10 μM compound, read-out: % Inhib at 10 μM
Protocol: Anti-inflammatory screening was established in human umbilical vein endothelial cells (HUVECs) to screen the test compounds for their ability to inhibit IL-1β stimulated IL-8 secretion from these cells. The level of secreted IL-8 in the HUVEC media was detected using a Quantikine™ Sandwich Enzyme-Linked Immunosorbent Assay (ELISA) from R&D Systems.
Cells and media were obtained from Cascade Biologics™ via Invitrogen. HUVECs were seeded in sterile 96-well tissue culture treated plates (0.1 ml per well, containing 2,400 cells; 8000 cells/cm^2). The seeded plates were incubated in a humidified incubator at 37 C/5% CO2. After 24 h, the media was replaced with fresh media (80 μl). The test compounds were serially diluted from 10 mM DMSO stocks with media to obtain dilutions 10× the final concentration. The compounds (10 μl) were added to the plates 30 min prior to the addition of 10 μl of 5 ng/ml stimulant IL-1β (final concentration 0.5 ng/ml). After incubating for 24 h, the plates were centrifuged at 200×g for 5 min (room temperature) and the media from each well transferred to a 96-well storage plate. Basal samples were assayed neat, but media from IL-1β stimulated cells was diluted in the calibrator diluent accompanying the IL-8 ELISA kit. The ELISA was performed according to the manufacturer's instructions.
A dose of 0.5 ng/ml IL-1β was chosen as a submaximal dose to observe the inhibition of IL-8 secretion with the test compounds.
Test compounds were initially screened at 10^−5M and 10^−6M for their ability to inhibit IL-1β stimulated IL-8 secretion (Table 1).

[3] = test system: IL-1β stimulated GM-CSF secretion in HUVECs; test: IL-1β stimulated GM-CSF secretion in HUVECs (ELISA); assay type: cell-based, human; conditions: increasing doses of compound
Protocol: (§1) The HUVEC IL1β secretion assay was performed using a 24-well plate format similar to that described for IL-8 secretion above (0.5 ml per well containing 16,000 cells; 8000 cells/cm^2). Media was collected from untreated cells (basal) and cells treated with either 0.5 ng/ml IL-1β only, 10^−5M compound (2) only or IL-1β stimulated plus compound (2). Media from 2 wells were pooled for each condition.
(§2) Using the results of the protein array, the effect of compound (2) on the secretion of five other cytokines stimulated by IL-1β was also measured in HUVECs. These included: GROα, MCP-1, GM-CSF, sICAM-1 and IL-6. The HUVECs were seeded in sterile 24-well tissue culture treated plates (as described above). The cells were treated with increasing doses of compound (2) prior to stimulating with IL-1β as described above. All cytokines were measured using the appropriate Quantikine® Sandwich ELISA from R&D Systems according to the manufacturer's instructions.

[4] = test system: IL-1β stimulated GROα secretion in HUVECs; test: IL-1β stimulated GROα secretion in HUVECs (ELISA); assay type: cell-based, human; conditions: increasing concentration of compound
Protocol: as §1, §2

[5] = Solubility of the topical formulation in vehicle acetone:ethanol/1:1; assay type: physicochemical; conditions: 150, 50 and 15 mg/ml in acetone:ethanol/1:1
[6] = test system: IL-1β stimulated MCP-1 secretion in HUVECs; test: IL-1β stimulated MCP-1 secretion in HUVECs (ELISA); assay type: cell-based, human; conditions: increasing concentration of compound
Protocol: as §1, §2

[7] = test system: IL-1β stimulated IL-6 secretion in HUVECs; test: IL-1β stimulated IL-6 secretion in HUVECs (ELISA); assay type: cell-based, human; conditions: increasing doses of compound
Protocol: as §1, §2

[8] = test system: IL-1β stimulated IL-8 secretion in human umbilical vein endothelial cells (HUVECs); test: IL-1β stimulated IL-8 secretion assay in HUVEC cells (ELISA); assay type: cell-based; conditions: 24-well format, increasing doses

| SMILES | IC50 [2] | inhibition at 1 µM [2] | inhibition at 10 µM [2] | also measured |
| --- | --- | --- | --- | --- |
| C[C@@H]1C[C@H]2[C@@H]3CCC4=CC(=O)C=C[C@]4(C)[C@@]3(F)[C@@H](O)C[C@]2(C)[C@@]1(O)C(=O)CO [dexamethasone, reference compound] |  |  |  | inhibition of ear swelling relative to vehicle control ([1]; 0.1 mg/ear topical, same regime, positive control): 72% |
| NC(=O)c1c(Cl)c(-c2cccnc2)n2c1C=CCC2 [Compound 12, 2-Chloro-3-pyridin-3-yl-5,6-dihydro-indolizine-1-carboxylic acid amide] | 1600 nM | 22.7% | 52.7% |  |
| COC1CCCn2c(-c3cccnc3)c(Cl)c(C(N)=O)c21 (stereo not shown) [Compound 7, 2-Chloro-8-methoxy-3-pyridin-3-yl-5,6,7,8-tetrahydro-indolizine-1-carboxylic acid amide] |  | 1.4% | 32.1% |  |
| Cc1ccncc1-c1cc(C(N)=O)c2n1CCCC2 [Compound 4, 3-(4-Methyl-pyridin-3-yl)-5,6,7,8-tetrahydro-indolizine-1-carboxylic acid amide] |  | 15.9% | 30.8% |  |
| Cc1ccncc1-c1c(Cl)c(C#N)c2n1CCCC2 [Compound 8, 2-Chloro-3-(4-Methyl-pyridin-3-yl)-5,6,7,8-tetrahydro-indolizine-1-carbonitrile] |  | 5.5% | 39.6% |  |
| NC(=O)c1cc(-c2cccnc2)n2c1CCCC2 [Compound 1, 3-pyridin-3-yl-5,6,7,8-tetrahydro-indolizine-1-carboxamide] |  | 31.8% | 34.7% |  |
| Cc1ccncc1-c1c(Cl)c(C(N)=O)c2n1CCCC2 [Compound 9, 2-Chloro-3-(4-methyl-pyridin-3-yl)-5,6,7,8-tetrahydro-indolizine-1-carboxylic acid amide] | 510 nM | 42.2% | 49.6% |  |
| NC(=O)c1c(Cl)c(-c2cccnc2)n2c1C(O)CCC2 (stereo not shown) [Compound 5, 2-Chloro-8-hydroxy-3-pyridin-3-yl-5,6,7,8-tetrahydro-indolizine-1-carboxylic acid amide] | 760 nM | 29% | 52.4% |  |
| NC(=O)c1c(Cl)c(-c2cccnc2)n2c1CCCC2 [Compound 2, 2-Chloro-3-pyridin-3-yl-5,6,7,8-tetrahydro-indolizine-1-carboxamide] | 350 nM | 49.4% | 59.5% | inhibition of ear swelling relative to vehicle control ([1]; 0.3 mg/ear x2 topical, 30 min before and 15 min after oxazolone challenge, measured at 24 h): 25%; inhibition of ear swelling relative to vehicle control ([1]; 1 mg/ear x2 topical, 30 min before and 15 min after oxazolone challenge, measured at 24 h): 29%; inhibition of ear swelling relative to vehicle control ([1]; 3 mg/ear x2 topical, 30 min before and 15 min after oxazolone challenge, measured at 24 h): 40%; effect on inflammation in mouse allergic contact dermatitis model ([1]; listed as compound 2): not as potent as dexamethasone; effect on inflammation in mouse allergic contact dermatitis model ([1]; listed as compound (2)): dose dependently inhibited inflammation; effect on IL-1β stimulated GM-CSF levels [3]: dose dependently decreased; reduction of IL-1β stimulated GROα levels [4]: ~25%; solubility of formulation [5]: not completely soluble; effect on IL-1β stimulated MCP-1 [6]: little effect; effect on IL-1β stimulated IL-6 levels [7]: increased IL-6 levels further; effect on IL-1β stimulated IL-8 secretion [8]: inhibited IL-8 and GM-CSF to a similar extent |
| N#Cc1c(Cl)c(-c2cccnc2)n2c1C(=O)C(Cl)(Cl)CC2 [Compound 10, 2,7,7-Trichloro-8-oxo-3-pyridin-3-yl-5,6,7,8-tetrahydro-indolizine-1-carbonitrile] |  | 18.8% | 35.7% |  |
| NC(=O)c1c(Cl)c(-c2cccnc2)n2c1C(=O)CCC2 [Compound 11, 2-Chloro-8-oxo-3-pyridin-3-yl-5,6,7,8-tetrahydro-indolizine-1-carboxylic acid amide] |  | 32.9% | 31.7% |  |
| N#Cc1c(Cl)c(-c2cccnc2)n2c1C(O)CCC2 (stereo not shown) [Compound 6, 2-Chloro-8-hydroxy-3-pyridin-3-yl-5,6,7,8-tetrahydro-indolizine-1-carbonitrile] |  | 52.2% | 21.8% |  |
| Cc1ccncc1-c1cc(C#N)c2n1CCCC2 [Compound 3, 3-(4-Methyl-pyridin-3-yl)-5,6,7,8-tetrahydro-indolizine-1-carbonitrile] |  | 34.4% | 35% |  |
